System: algae (Chlamydomonas)
Assay: NM7O added to a suspension of algae (algaecide test)
Type: cell-based
Conditions: algae 1×10^6 cells/ml in tubes
Text: The color change can serve as a valuable indicator of activity, as untreated NM7O remains suspended and violet colored.
This may be due to the requirement of direct contact between the product and the algae.

## O=S(=O)([O-])[O-].[Cu+2] [copper sulfate]
  effect on algal suspension (appearance of the solution): the solution turned blue
  microscopic evaluation of the sediment (appearance of treated cells): appeared intact with full cellular contents
